Experimental findings from US11629143B2, “HipK4 inhibitors and uses thereof” (Vibliome Therapeutics, LLC, priority 2020, dated 2023) are described below.

As a reminder, the inhibition is the relative decrease from the control value, in per cent.

Holding throughout (assay): Kinase panel (mobility shift)
Assay type in all cases: biochemical

Assay [1] has as its target TRKB (Homo sapiens, UniProt Q16620). In a few lines: (§1)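 Microfluidic mobility-shift readout: product and substrate peaks are resolved by charge, and their fluorescence is compared to give enzyme activity. Enzyme, fluorescent substrate and test compound are reacted, then terminated before chip loading. Values are binned at 5 um: A 95% or greater, B 90%-94%, C 80%-89%.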

The target in assay [2] is T1, EPH-B2 (Homo sapiens, UniProt P29323).
T1 sequence (P29323 19-1055): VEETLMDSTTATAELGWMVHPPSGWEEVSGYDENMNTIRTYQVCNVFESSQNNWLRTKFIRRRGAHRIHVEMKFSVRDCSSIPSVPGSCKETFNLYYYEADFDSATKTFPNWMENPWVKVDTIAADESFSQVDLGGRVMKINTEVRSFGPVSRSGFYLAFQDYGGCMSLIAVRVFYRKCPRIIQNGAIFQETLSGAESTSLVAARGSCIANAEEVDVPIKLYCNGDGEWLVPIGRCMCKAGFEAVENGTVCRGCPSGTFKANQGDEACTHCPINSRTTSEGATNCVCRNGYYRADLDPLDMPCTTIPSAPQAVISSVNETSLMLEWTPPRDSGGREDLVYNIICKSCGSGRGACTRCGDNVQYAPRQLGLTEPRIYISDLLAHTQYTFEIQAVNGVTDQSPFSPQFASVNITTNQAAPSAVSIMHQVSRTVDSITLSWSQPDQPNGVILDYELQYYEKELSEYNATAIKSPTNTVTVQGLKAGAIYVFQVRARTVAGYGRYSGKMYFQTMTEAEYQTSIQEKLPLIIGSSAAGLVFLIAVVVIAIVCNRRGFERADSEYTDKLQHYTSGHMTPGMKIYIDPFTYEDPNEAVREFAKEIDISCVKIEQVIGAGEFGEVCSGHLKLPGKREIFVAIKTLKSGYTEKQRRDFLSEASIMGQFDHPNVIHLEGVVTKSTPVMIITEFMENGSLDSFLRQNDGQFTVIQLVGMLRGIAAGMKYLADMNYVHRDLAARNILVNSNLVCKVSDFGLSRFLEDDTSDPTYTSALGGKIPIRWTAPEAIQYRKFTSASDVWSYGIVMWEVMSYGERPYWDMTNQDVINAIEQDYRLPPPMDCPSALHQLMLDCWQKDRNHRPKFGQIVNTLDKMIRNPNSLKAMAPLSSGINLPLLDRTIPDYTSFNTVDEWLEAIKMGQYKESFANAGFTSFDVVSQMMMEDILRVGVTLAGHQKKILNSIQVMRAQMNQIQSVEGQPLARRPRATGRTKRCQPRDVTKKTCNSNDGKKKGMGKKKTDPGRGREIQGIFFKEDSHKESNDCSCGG
Particulars: at 5 um. An outline of the steps:
as §1

Assay [3] has as its target T2, MER (Homo sapiens, UniProt Q12866).
T2 sequence (Q12866 21-999): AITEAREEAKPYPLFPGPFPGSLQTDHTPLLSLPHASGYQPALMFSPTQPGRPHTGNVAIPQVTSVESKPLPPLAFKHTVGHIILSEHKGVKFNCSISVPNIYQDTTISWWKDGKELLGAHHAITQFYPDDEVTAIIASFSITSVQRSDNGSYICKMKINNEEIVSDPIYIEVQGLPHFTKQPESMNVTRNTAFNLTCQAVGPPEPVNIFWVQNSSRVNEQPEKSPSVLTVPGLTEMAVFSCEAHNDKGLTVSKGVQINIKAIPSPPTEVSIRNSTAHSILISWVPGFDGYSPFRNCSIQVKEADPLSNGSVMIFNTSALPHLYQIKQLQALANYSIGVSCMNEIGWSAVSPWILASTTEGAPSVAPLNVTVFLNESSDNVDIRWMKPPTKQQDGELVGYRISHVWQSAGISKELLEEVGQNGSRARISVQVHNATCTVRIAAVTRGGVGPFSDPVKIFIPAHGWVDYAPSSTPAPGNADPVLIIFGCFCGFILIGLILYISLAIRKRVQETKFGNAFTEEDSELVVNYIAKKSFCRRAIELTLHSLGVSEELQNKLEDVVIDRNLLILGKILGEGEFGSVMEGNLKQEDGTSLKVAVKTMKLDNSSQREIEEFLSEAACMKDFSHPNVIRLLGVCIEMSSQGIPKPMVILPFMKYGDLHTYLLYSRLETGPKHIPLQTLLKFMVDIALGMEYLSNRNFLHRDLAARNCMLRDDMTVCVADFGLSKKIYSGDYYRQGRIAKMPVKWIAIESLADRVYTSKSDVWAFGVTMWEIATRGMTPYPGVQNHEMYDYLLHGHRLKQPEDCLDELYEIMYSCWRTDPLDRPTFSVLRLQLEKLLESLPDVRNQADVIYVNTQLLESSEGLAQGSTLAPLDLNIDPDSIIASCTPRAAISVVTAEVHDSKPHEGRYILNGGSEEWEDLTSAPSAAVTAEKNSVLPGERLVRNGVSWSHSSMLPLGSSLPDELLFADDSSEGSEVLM
An outline of the steps:
as §1

TRKB, sequence (Q16620 32-822, species assumed): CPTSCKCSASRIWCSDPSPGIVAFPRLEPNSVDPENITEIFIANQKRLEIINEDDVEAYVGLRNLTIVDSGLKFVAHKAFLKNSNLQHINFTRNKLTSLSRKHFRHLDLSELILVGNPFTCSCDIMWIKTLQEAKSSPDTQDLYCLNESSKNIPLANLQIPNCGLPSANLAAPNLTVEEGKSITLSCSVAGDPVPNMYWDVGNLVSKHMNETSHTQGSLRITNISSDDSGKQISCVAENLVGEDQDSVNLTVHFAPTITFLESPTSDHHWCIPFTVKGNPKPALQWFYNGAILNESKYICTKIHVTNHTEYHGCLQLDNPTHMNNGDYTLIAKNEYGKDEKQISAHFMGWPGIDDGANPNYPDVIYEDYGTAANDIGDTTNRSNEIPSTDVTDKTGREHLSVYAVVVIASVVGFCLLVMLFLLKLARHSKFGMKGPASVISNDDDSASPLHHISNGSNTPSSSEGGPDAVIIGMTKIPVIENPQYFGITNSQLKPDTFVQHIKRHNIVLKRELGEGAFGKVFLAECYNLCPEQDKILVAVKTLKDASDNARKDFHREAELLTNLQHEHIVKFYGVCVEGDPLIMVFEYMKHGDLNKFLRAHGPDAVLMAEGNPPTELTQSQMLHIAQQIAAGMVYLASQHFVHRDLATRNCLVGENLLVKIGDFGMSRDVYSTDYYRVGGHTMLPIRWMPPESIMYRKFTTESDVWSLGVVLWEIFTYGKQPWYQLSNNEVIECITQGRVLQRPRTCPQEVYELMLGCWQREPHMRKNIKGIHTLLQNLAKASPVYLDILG

On to `COc1nc(C(=O)Nc2ccc(Oc3ccnc(C(=O)NC4COC4)c3)c(F)c2)c(-c2ccc(F)cc2)o1` [Compound 39], for which the inhibition at 5 µM in assay [1] and in assay [3] was less than 50% throughout. Besides, in assay [2], the “inhibition of kinase activity, EPH-B2” value is listed as “E (category E is less than 50%)”.
For `CNC(=O)c1cc(Oc2ccc(NC(=O)c3nc(SC)oc3-c3ccc(F)s3)cc2F)ccn1` [Compound 16], the inhibition at 5 µM in assay [1] and in assay [3] was less than 50% throughout. Moreover, the “inhibition of kinase activity, EPH-B2” value in assay [2] is “D (category D for 50-79)”.
For the compound `COc1nc(C(=O)Nc2ccc(Oc3ccnc(C(=O)NCC(F)(F)F)c3)c(F)c2)c(-c2ccc(F)cc2)o1` [Compound 43], the inhibition at 5 µM in assay [1] and in assay [3] was less than 50% each time. In addition, the “inhibition of kinase activity, EPH-B2” value in assay [2] was “E (category E is less than 50%)”.
In the case of `CNC(=O)c1cc(Oc2ccc(NC(=O)c3nc(NC)sc3-c3ccc(F)cc3F)cc2F)ccn1` [Compound 21], the inhibition at 5 µM was 50 to 79% in assay [1] and less than 50% in assay [3]. In assay [2], the “inhibition of kinase activity, EPH-B2” value is on record as “D (category D for 50-79)”.
For `CSc1nc(C(=O)Nc2ccc(Oc3ccnc(C(=O)NCC(F)(F)F)c3)c(F)c2)c(-c2ccc(F)cc2)o1` [Compound 40], in that order: less than 50%, less than 50% and “E (category E is less than 50%)”.
As to `CNC(=O)c1cc(Oc2ccc(NC(=O)c3nc(OCC(F)(F)F)oc3-c3ccc(F)cc3)cc2F)ccn1` [Compound 38], the results for the inhibition at 5 µM in assay [1] and in assay [3] were less than 50% and 80 to 89%, respectively. The “inhibition of kinase activity, EPH-B2” value in assay [2] is “E (category E is less than 50%)”.
For `CNC(=O)c1cc(Oc2ccc(NC(=O)c3nc(OC4CC4)oc3-c3ccc(F)cc3)cc2F)ccn1` [Compound 32], in that order: less than 50%, 80 to 89% and “D (category D for 50-79)”.
The corresponding values for `CSc1nc(C(=O)Nc2ccc(Oc3cc4cnn(C)c4cc3Br)c(F)c2)c(-c2ccc(F)cc2)o1` [Compound 2] are less than 50%, less than 50% and “E (category E is less than 50%)”.
For the compound `[2H]C([2H])([2H])NC(=O)c1cc(Oc2ccc(NC(=O)c3nc(SC)oc3-c3ccc(F)s3)cc2F)ccn1` [Compound 35], the inhibition at 5 µM in assay [1] and in assay [3] was less than 50% each time. Besides, the “inhibition of kinase activity, EPH-B2” value in assay [2] is on record as “D (category D for 50-79)”.
For `CNC(=O)c1cc(Oc2ccc(NC(=O)c3nc(OC)oc3-c3ccc(F)c(F)c3)cc2F)ccn1` [Compound 24], the inhibition at 5 µM in assay [1] and in assay [3] was less than 50% each time. The “inhibition of kinase activity, EPH-B2” value in assay [2] is “E (category E is less than 50%)”.
For `CNC(=O)c1ccc(Oc2ccc(NC(=O)c3nc(Cl)oc3-c3ccc(F)cc3)c(F)c2)cn1` [Compound 36], the inhibition at 5 µM in assay [1] and in assay [3] was less than 50% in each case. Further, the “inhibition of kinase activity, EPH-B2” value in assay [2] is reported as “E (category E is less than 50%)”.
In the case of `CNC(=O)c1cc(Oc2ccc(NC(=O)c3nc(SC)oc3-c3ccc(F)cc3F)cc2)ccn1` [Compound 6], the inhibition at 5 µM in assay [1] and in assay [3] was 90 to 94% throughout. The “inhibition of kinase activity, EPH-B2” value in assay [2] was “E (category E is less than 50%)”.
On to `CNC(=O)c1cc(Oc2ccc(NC(=O)c3nc(SC)oc3-c3ccc(Cl)s3)cc2)ccn1` [Compound 5], for which the inhibition at 5 µM in assay [1] and in assay [3] was less than 50% each time. In addition, in assay [2], the “inhibition of kinase activity, EPH-B2” value was “E (category E is less than 50%)”.
Turning to `CNC(=O)c1cc(Oc2ccc(NC(=O)c3nc(NC)oc3-c3ccc(F)cc3)cc2F)ccn1` [Compound 14], the inhibition at 5 µM fell in the range of 90 to 94% in assay [1] and 50 to 79% in assay [3]. Moreover, the “inhibition of kinase activity, EPH-B2” value in assay [2] is listed as “D (category D for 50-79)”.
